In PMC11720353, “Clove Essential Oil as a Source of Antitumoral Compounds Capable of Crossing the Blood–Brain Barrier: A Focus on the Effects of β-Caryophyllene and Eugenol in a Glioblastoma Cell Line” (International Journal of Molecular Sciences, 2024):
Like-named read-outs stand apart in the source and are kept apart here.

Legend:
[1] = cited from earlier work
[2] = tested on: U87 cells; assay: Cell death assay (Annexin V/PI, flow cytometry); type: cell-based, human; details: EU 200 µM, BCA 125 µM, alone or in combination, 24 h
Method: (§4) HMC3 and U87 cells were seeded in duplicate into 12-well plates (10 × 10^4 cells/well). After 24 h of incubation at 37 °C and 5% CO2, the medium was replaced, and the cells were treated either with EU (200 µM) or BCA (125 µM), alone and in combination (EU 200 µM + BCA 125 µM). Following the 24 h treatment, the cells were co-stained with AV-APC and PI according to the manufacturer’s protocol (Biolegend, San Diego, CA, USA). Briefly, the cells were resuspended in binding buffer (100 µL) and incubated with AV-APC solution (5 µL) and PI solution (2 µL) for 15 min at room temperature. Then, the cells were diluted in a binding buffer (400 µL). A six-parameter, four-color FACSCalibur flow cytometer (Becton Dickinson, San Jose, CA, USA) was used, and at least 10,000 events were collected by acquisition using CellQuest software (Becton Dickinson, San Jose, CA, USA). The results were analyzed with the Paint-a-Gate software and expressed in percentage (%).

[3] = tested on: HMC3 cells; assay: Cell cycle analysis (PI/RNase, flow cytometry); type: cell-based, human; details: EU 200 µM, BCA 125 µM, alone or in combination, 24 h
Method: (§1) Analysis of the effect of BCA and/or EU on the cell cycle was assessed with flow cytometry using propidium iodide (PI)/RNase solution, according to the manufacturer’s protocol (Immunostep, Salamanca, Spain), as previously described. HMC3 and U87 cells (30 × 10^4 cells/well) were seeded in triplicate into 6-well plates and incubated for 24 h at 37 °C and 5% CO2. Thereafter, the cells were treated either with EU (200 µM) or BCA (125 µM) alone or in combination (EU 200 µM + BCA 125 µM). After 24 h, the cells were detached and fixed in 70% ethanol for 60 min at 4 °C, washed twice with PBS, and then stained with 500 µL of PI/RNase solution. The results were acquired using CellQuest software and expressed as the calculated percentage of the cell population in each cell cycle phase (G0/G1, S and G2/M) according to the PI intensity.

[4] = tested on: U87 cells; assay: Cell cycle analysis (PI/RNase, flow cytometry); type: cell-based, human; details: EU 200 µM, 24 h
Method: as §1

[5] = tested on: HMC3 cells; assay: Cell death assay (Annexin V/PI, flow cytometry); type: cell-based, human; details: EU 200 µM, BCA 125 µM, alone or in combination, 24 h
Method: as §4

[6] = tested on: HMC3 cells; assay: Quantitative real-time PCR of mRNA levels; type: cell-based, human; details: 24 h
Method: (§2) An analysis of the genes involved in angiogenesis, tumor progression and proliferation were performed. In particular, we analyzed the genes involved in the cell cycle and in three different apoptotic pathways: B-cell lymphoma-2 (BCL2), Bcl-2-like protein 1 (BCL2L1), Bcl-2 Associated X-protein (BAX), BCL2 Antagonist/Killer 1 (BAK-1) and Caspase 9 (CASP9) as the key genes of the intrinsic mitochondrial pathway; and Phosphatase and tensin homolog (PTEN), Tumor protein p53 (TP53), Murine double minute 2 (MDM2), Cyclin-dependent kinase 4 (CDK4) and Vascular endothelial growth factor A (VEGFA) mRNA levels were assessed by quantitative real-time PCR (qRT-PCR). HMC3 and U87 cells were seeded with a density of 1 × 10^6 cells per well and incubated for 24 h at 37 °C and 5% CO2. Thereafter, the cells were treated either with EU (200 μM) or BCA (125 μM) alone and in combination (EU 200 μM + BCA 125 μM). Total RNA was extracted using the TripleXtractor solution (GRISP, Lisbon, Portugal) according to the manufacturer's protocol. RNA was converted into cDNA through the […] Synthesis Supermix (GRISP, Lisbon, Portugal). Each optimized reaction was performed using […] SYBR Green Mastermix 2X with […], Lisbon, Portugal) and subjected to the amplification protocol described by the manufacturer, using a melting temperature of 60 °C. The relative gene expression was determined by the 2^-ΔΔCt method and normalized on Glyceraldehyde-3-Phosphate Dehydrogenase (GAPDH), which was the endogenous reference and relative to the untreated cells (control condition).

[7] = tested on: U87 cells; assay: Quantitative real-time PCR of mRNA levels; type: cell-based, human; details: 24 h
Method: as §2

[8] = tested on: HMC3 cells; assay: Inflammatory cytokines in conditioned media (Luminex/BioPlex); type: cell-based, human; details: EU 200 µM, BCA 125 µM, alone or in combination, 24 h
Method: (§3) In order to determine the impact of BCA and/or EU on inflammatory cytokines levels, cytokine expression analyses (L-6, IL-4, IL-8 and TNF-α) were performed using a customized detection panel purchased from Bio-techne (Minneapolis, MN, USA). The cells were seeded, in triplicate, into 24-well culture plates (8 × 10^4 cells/well). After 24 h, the medium was replaced and the cells were treated either with the vehicle (ethanol) or with different concentrations of EO single compounds alone (EU: 2 µM, 20 µM, 200 µM; and BCA: 1.25 µM, 12.5 µM, 125 µM) or in combination (EU 2 µM + BCA 1.25 µM; EU 20 µM + BCA 12.5 µM; and EU 200 µM + BCA 125 µM). The final concentration of ethanol in the cell medium was kept lower than 0.1%. The ethanol 0.1%-treated cells were considered the control condition. After the 24 h treatment, supernatants were collected and centrifuged at 4,000× g for 10 min, and the samples were analyzed with the BioPlex 200 instrument (BioRad®, Hercules, CA, USA) following the manufacturer’s protocol.

[9] = tested on: U87 cells; assay: as above; type: cell-based, human; details: EU 200 µM, BCA 125 µM, alone or in combination, 24 h
Method: as §3

[10] = tested on: U87 cells; assay: Metabolic activity (Alamar blue) assay and HSA synergy analysis; type: cell-based, human; details: EU 2.5, 25, 200 µM or BCA 1.25, 12.5, 125 µM alone, 24-72 h
Method: To evaluate the cytotoxic/antiproliferative potential of BCA and/or EU, the U87 and HMC3 cells were seeded, in triplicate, into 48-well culture plates (4 × 10^4 cells/well). After 24 h, the medium was replaced, and the cells were treated either with the vehicle (ethanol) or with different concentrations of EO single molecules, diluted in ethanol alone ([…]; BCA: 1.25 µM, µM, 125 µM) or in combination (EU 2 µM and BCA 1.25 µM; EU 20 µM and BCA 12.5 µM; and EU 200 µM and BCA 125 µM) in order to evaluate the possible synergistic effects. The final concentration of ethanol in the cell medium was kept lower than 0.1%. Non-treated cells were considered the control condition. Metabolic activity was evaluated using a modified Alamar blue® assay, as previously described. […] After 2 h of incubation at 5% CO2 and 37 °C, the absorbance was read at 570 and 600 nm in a BioTeck (BioTek Instruments, Inc., Winooski, VT, USA). The absorbance results were obtained using the Gen5 program. The metabolic activity was then calculated by the following equation: Metabolicactivity %=A570−A600 oftreated cells/A570−A600 ofcontrol cells×100 All data were analyzed using the software GraphPad Prism v.9.00 (GraphPad Software, San Diego, CA, USA). All in vitro experiments were performed in triplicate, and the acquired results were expressed as means ± SEM. […]

[11] = tested on: U87 cells; assay: Clonogenic cell survival assay; type: cell-based, human; details: EU 200 µM, BCA 125 µM, alone or in combination, 14 days
Method: An evaluation of the antiproliferative effect via clonogenic assay on the tumoral U87 cells was performed using an adapted protocol from the previously described procedure. Briefly, U87 cells (0.8 × 10^3 cells/well) were seeded into 6-well plates and incubated for 24 h. After the incubation, based on the results obtained from the cell viability assay and synergistic score, the cells were treated either with EO single compounds diluted in ethanol alone (EU 200 µM and BCA 125 µM) or in combination for 14 days with the media being changed every 2/3 days. The cells without treatment were considered the control condition. Following the incubation, the cells were washed with PBS, fixed with paraformaldehyde (PFA) and stained with 0.1% crystal violet solution. The number of colonies was counted by microscopy, and the surviving fraction (SF) was calculated as the mean colonies/number of cells seeded.

[12] = EU 200 µM, BCA 125 µM, alone or in combination

C=C(C)[C@H]1CC=C(C)CC1 [limonene]
ability to permeate the CNS ([1]; after oral administration): inability to permeate the CNS

C=CCc1ccc(O)c(OC)c1 [EU, 4-allyl-2-methoxyphenol]
live (viable) cells, change with respect to control [2]: did not affect
effect on cell cycle [3]: no effects
effect on cell cycle [4]: no significant effect
cell viability [5]: did not affect
PTEN mRNA expression, change vs control ([6]; EU 200 µM or BCA 125 µM): +42.2%
BAK1 mRNA expression, change vs control [6, 12]: no effect
BAX mRNA expression, change vs control [6, 12]: −29.7%
BCL2L1 mRNA expression, change vs control [6, 12]: −34.1%
BCL2 mRNA expression, change vs control [6, 12]: −61.2%
CASP9 mRNA expression, change vs control [6, 12]: no effect
CDK4 mRNA levels, change vs control [6, 12]: no effects
MDM2 mRNA expression, change vs control [6, 12]: −61.2%
TP53 mRNA expression, change vs control [6, 12]: no effect
VEGFA mRNA expression, change vs control [6, 12]: −31.5%
PTEN mRNA expression, change vs control ([7]; EU 200 µM or BCA 125 µM): +86.4%
BAK1 mRNA expression, change vs control [7, 12]: +32.3%
BAX mRNA expression, change vs control [7, 12]: +50.3%
BCL2L1 mRNA expression, change vs control [7, 12]: −42.2%
BCL2 mRNA expression, change vs control [7, 12]: −45.6%
CASP9 mRNA expression, change vs control [7, 12]: no effect
MDM2 mRNA expression, change vs control [7, 12]: no effect
TP53 mRNA expression, change vs control [7, 12]: +143.6%
VEGFA mRNA expression, change vs control [7, 12]: no effect
CDK4 mRNA levels, change vs control ([7]; EU 200 µM, BCA 125 µM, alone or in combination, normalized to GAPDH): −49.1%
IL-4 levels, change vs control [8]: −26%
IL-4 levels, change vs control [9]: −31%
IL-6 secretion, change vs control [9]: None of the treatments modulated
IL-8 secretion, change vs control [9]: unaffected
reduction in metabolic activity, single compounds [10]: No reduction
decrease of clonal growth / colony formation with respect to control [11]: −59.5%
ability to cross the blood–brain barrier ([1]; rat, in vivo): high aptitude to cross the blood–brain barrier

O=C/C=C/c1ccccc1 [cinnamaldehyde]
ability to permeate the CNS ([1]; rat, not told, po): inability to permeate the CNS
